The nature of one series: in vivo. The following applies: rabbit. The source says:
Sampling was done from the anterior chamber for the first five animals after 1 hr, 3 hr, 6 hr, 12 hr, and 24 hr, and from both the anterior chamber and posterior segment of the remaining five animals after 1 hr, 3 hr, 6 hr, 24 hr, and 48 hr. One animal was used for each time point.

The conditions of series [1]: aqueous / dissolution medium (0.9% saline), cited from earlier work.

Structures are written as SMILES. Where a name gives a salt, the structure may show the parent alone. Read-outs that look alike come from different tables or passages of the source.

Regarding `CC(C)(C)NC[C@H](O)COc1nsnc1N1CCOCC1` [Timolol Maleate, (−)-1-(tert-butylamino)-3-[(4-morpholino-1,2,5-thiadiazo-3-yl)oxy]-2-propanol maleate, (1:1) salt], in “in vivo”, the “clearance in the posterior segment compared with anterior chamber (in words)” value is recorded as “relatively slower clearance rate”; the half-life is about 1.43 h; the “levels in the anterior chamber from posterior segment bolus injection (in words)” value was “the levels were small and considered insignificant”. In addition, the “solubility in aqueous medium (in words)” value in series [1] (listed as timolol maleate) was “high water solubility”.

Regarding `CC(C)(C)NC[C@H](O)COc1nsnc1N1CCOCC1` [Timolol freebase], in series [1], the “solubility in aqueous medium (in words)” value is “less soluble”.

A word on the half-life: it is how long it takes for the measured level to halve. Lower therefore signals rapid decline.

The values above are taken from patent publication US8715709B2, “Sustained release intraocular implants and methods for treating ocular neuropathies” (Allergan, Inc., priority 2004, dated 2014).
